This passage reports IC50 results from US20250388553A1 (Incyte Corporation, priority 2018, published 2025).

Usually IC50 stands for the concentration that gives 50% inhibition.

Molecules are shown by their SMILES. Structures can show the parent of a compound that is named as a salt. Where two headings read alike, the source gives them in different places.

The target in assay [1] is PI3Kδ (p1106/p85a) Recombinant Human Protein (Homo sapiens (Human), UniProt O00329). The assay is described as follows: PI3Kδ scintillation proximity assay. In kind it is biochemical. To be noted: scintillation proximity assay, recombinant human PI3Kδ. (In general: In a scintillation proximity assay essentially only radioactivity close to the scintillant gives light.)
Assay [2] has as its system Phosphorylated Ribosomal Protein S6 (RPS6) in THP-1 cells. The assay is described as follows: THP-1 RPS6 ELISA assay. It counts as cell-based, Human. The settings on record: THP-1 cells, 10 nM MCP-1, phospho-RPS6 ELISA, read-out: PI3Kγ_THP1_RPS6_ELISA IC50. From the text: Example A. THP-1 RPS6 ELISA Assay
To measure the Phosphorylated Ribosomal Protein S6 (RPS6) in cell lysates, THP-1 cells (Human Acute Monocytic Leukemia) are purchased from ATCC (Manassas, VA) and maintained in RPMI with 10% FBS (Gibco/Life Technologies, Carlsbad, CA). For the assay, THP-1 cells are serum starved overnight in RPMI, then plated in RPMI (2×10^5 cells/well in […]) into 96-well flat-bottom tissue culture treated plates (Corning, Corning, NY), in the presence or absence of a concentration range of test compounds. Covered plates are incubated for 2 hours at 37° C., 5% CO2 then treated with or without 10 nM MCP-1(MYBioSource, San Diego, CA) for 15 minutes at 37° C., 5% CO2. Plates are centrifuged at 1600 RPM and supernatants are removed. Cells are lysed in Lysis Buffer (Cell Signaling, Danvers, MA) with Protease Inhibitor (Calbiochem/EMD, Germany), PMSF (Sigma, St Louis MO), HALTS (Thermo Fisher, Rockford, IL) for 30 min on wet ice. Cell lysates are frozen at −80° C. before testing. The lysates are tested in the Human/Mouse/Rat Phospho-RPS6 ELISA (R&D Systems, Inc. Minn, MN). The plate is measured using a microplate reader (SpectraMax M5—Molecular Devices, LLC Sunnyvale, CA) set to 450 nm with a wavelength correction of 540. IC50 determination is performed by fitting the curve of inhibitor percent inhibition versus the log of the inhibitor concentration using the GraphPad Prism 5.0 software.
The compounds of the Examples were tested in the assays described in Examples A, B and C and found to have the IC50s are shown in Tables A1, A2, A3 and A4.
A general note: An ELISA detects its analyte on a solid surface through an enzyme-linked reagent.

The target in assay [3] is PI3Kγ (p110γ) Recombinant Human Protein (Homo sapiens (Human), UniProt P48736). As to the kind of experiment: PI3K-γ scintillation proximity assay. In kind it is biochemical.
[4] abbreviates: Table A4, scintillation proximity assay, recombinant human p110γ.
The mark [5] stands for this setting: Table A1, scintillation proximity assay, recombinant human p110γ.
[6] abbreviates: Table A3, scintillation proximity assay, recombinant human p110γ.

PI3Kγ (p110γ) Recombinant Human Protein, sequence (P48736 whole entry): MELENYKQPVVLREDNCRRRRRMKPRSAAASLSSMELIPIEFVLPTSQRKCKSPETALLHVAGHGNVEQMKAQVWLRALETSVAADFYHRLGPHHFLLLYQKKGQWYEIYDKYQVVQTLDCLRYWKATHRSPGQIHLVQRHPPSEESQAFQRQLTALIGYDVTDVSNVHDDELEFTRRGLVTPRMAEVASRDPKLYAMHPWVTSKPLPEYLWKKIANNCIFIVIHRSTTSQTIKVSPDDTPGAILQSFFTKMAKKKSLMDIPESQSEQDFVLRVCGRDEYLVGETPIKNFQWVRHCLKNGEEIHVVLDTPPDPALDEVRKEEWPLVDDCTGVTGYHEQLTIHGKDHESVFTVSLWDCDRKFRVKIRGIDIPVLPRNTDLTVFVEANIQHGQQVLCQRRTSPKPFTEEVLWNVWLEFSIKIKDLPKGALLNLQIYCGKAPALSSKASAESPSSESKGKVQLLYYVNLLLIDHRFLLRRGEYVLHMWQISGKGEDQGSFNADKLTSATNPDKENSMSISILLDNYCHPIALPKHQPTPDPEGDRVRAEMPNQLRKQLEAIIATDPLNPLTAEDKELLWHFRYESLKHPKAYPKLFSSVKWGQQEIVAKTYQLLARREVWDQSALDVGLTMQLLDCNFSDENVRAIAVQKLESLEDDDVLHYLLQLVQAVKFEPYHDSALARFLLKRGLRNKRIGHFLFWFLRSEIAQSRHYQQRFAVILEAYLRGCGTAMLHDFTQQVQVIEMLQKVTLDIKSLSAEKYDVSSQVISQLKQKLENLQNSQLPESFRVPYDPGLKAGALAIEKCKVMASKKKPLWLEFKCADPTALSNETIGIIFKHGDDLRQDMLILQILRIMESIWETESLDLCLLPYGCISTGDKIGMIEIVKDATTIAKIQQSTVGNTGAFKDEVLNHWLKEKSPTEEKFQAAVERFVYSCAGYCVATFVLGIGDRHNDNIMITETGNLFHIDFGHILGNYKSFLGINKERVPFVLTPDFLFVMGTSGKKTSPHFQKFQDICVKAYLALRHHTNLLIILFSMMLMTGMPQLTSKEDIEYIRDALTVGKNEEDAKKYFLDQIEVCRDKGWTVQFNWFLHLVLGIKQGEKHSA
PI3Kδ (p1106/p85a) Recombinant Human Protein, sequence (O00329 whole entry): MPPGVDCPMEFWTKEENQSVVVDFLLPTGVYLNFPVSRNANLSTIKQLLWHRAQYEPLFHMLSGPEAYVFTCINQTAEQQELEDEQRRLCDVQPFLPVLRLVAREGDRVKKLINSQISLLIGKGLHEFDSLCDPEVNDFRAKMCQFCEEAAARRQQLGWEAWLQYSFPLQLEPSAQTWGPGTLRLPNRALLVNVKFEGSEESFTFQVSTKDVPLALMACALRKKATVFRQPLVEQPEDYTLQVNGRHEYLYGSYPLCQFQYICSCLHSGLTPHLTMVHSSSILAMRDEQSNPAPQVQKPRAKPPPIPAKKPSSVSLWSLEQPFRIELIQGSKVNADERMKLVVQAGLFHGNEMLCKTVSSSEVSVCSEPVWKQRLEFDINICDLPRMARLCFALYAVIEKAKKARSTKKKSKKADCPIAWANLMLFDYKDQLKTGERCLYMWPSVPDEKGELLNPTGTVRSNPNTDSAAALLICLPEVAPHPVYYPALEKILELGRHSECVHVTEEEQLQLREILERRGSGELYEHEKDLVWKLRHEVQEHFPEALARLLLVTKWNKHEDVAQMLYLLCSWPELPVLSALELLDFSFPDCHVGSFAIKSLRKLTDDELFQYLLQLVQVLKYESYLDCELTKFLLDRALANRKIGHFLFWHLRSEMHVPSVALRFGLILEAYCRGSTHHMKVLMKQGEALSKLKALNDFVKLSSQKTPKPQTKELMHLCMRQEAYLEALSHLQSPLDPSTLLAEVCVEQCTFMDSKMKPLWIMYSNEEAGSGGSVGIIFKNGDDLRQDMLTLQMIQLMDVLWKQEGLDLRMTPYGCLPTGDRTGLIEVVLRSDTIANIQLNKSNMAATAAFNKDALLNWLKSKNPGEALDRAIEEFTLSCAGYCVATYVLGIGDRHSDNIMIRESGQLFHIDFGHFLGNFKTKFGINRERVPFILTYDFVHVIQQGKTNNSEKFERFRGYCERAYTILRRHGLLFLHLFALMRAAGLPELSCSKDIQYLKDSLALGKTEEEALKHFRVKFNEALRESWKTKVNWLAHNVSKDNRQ
PI3Kδ (p1106/p85a) Recombinant Human Protein, sequence (P27986 whole entry partner): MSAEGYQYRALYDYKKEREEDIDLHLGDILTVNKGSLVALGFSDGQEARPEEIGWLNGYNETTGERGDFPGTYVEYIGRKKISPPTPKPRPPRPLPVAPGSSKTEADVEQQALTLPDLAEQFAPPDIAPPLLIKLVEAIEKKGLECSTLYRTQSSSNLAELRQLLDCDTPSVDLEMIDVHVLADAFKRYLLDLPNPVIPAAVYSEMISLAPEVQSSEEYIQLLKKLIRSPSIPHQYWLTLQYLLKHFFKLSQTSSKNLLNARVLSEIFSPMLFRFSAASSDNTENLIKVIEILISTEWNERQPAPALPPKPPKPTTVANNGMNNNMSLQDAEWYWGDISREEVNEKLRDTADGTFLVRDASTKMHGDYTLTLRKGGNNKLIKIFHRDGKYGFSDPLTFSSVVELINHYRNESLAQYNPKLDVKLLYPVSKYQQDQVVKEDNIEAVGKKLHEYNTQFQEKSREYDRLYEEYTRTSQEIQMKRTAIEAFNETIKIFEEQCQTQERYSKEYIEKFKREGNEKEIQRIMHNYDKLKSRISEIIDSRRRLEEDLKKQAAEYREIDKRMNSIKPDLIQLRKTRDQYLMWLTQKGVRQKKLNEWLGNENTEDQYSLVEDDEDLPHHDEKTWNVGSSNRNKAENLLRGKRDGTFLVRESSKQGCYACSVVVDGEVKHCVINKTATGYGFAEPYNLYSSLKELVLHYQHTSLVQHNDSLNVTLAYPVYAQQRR

Turning to `Cc1ccc(C(O)(C(N)=O)C(F)(F)F)cc1-c1cnc(N)c(N2CCN(c3ccccc3C)CC2)n1` (stereo not drawn) [Example 118, 2-(3-(5-amino-6-(4-o-tolylpiperazin-1-yl)pyrazin-2-yl)-4-methylphenyl)-3,3,3-trifluoro-2-hydroxypropanamide trifluoroacetate], the IC50 in assay [1] (Table A4) was 100 to 500 nM; in assay [2] (Homo sapiens, Table A4), 500 to 1000 nM; in assay [3] (setting [4]), less than 100 nM.

Take `Cc1ccc(C(O)(C(N)=O)C(F)F)cc1-c1cnc(N)c(C(=O)NC(C)C)n1` (stereo not drawn) [Example 31]: the concentration for half-maximal inhibition (IC50) in assay [1] (Table A1), in assay [2] (Table A1) and in assay [3] (setting [5]) was less than 100 nM throughout.

In the case of `CCOc1ccccc1N1CCN(c2nc(-c3cc(C(O)(C(N)=O)C(F)(F)F)ccc3C)cnc2N)CC1` (stereo not drawn) [Example 129, 2-(3-(5-amino-6-(4-(2-ethoxyphenyl)piperazin-1-yl)pyrazin-2-yl)-4-methylphenyl)-3,3,3-trifluoro-2-hydroxypropanamide trifluoroacetate], the IC50 in assay [1] (Table A4) was 100 to 500 nM; in assay [2] (Homo sapiens, Table A4) it was 500 to 1000 nM; in assay [3] (setting [4]), less than 100 nM.

With `Cc1ccc(C(O)(C(N)=O)C(F)(F)F)cc1-c1cnc(N)c(C(=O)N[C@H]2CC[C@H](O)CC2)n1` (stereo partly drawn) [Example 3, 3-amino-6-(5-(3-amino-1,1,1-trifluoro-2-hydroxy-3-oxopropan-2-yl)-2-methylphenyl)-N-((1r,4r)-4-hydroxycyclohexyl)pyrazine-2-carboxamide trifluoroacetate], the IC50 in assay [1] (Table A1), in assay [2] (Table A1) and in assay [3] (setting [5]) was less than 100 nM in each case.

As for `Cc1ccc(C(O)(C(N)=O)C(F)(F)F)cc1-c1cnc(N)c(N2CC(=O)N(c3ccc(O)cc3)[C@@H](CO)C2)n1` (stereo partly drawn) [Example 124, 2-(3-(5-amino-6-((R)-3-(hydroxymethyl)-4-(4-hydroxyphenyl)-5-oxopiperazin-1-yl)pyrazin-2-yl)-4-methylphenyl)-3,3,3-trifluoro-2-hydroxypropanamide trifluoroacetate], the IC50 was 100 to 500 nM in assay [1] (Table A4); 500 to 1000 nM in assay [2] (Homo sapiens, Table A4); less than 100 nM in assay [3].

In the case of `Cc1ccc(C(O)(C(N)=O)C(F)(F)F)cc1-c1cnc(N)c(-c2ccc(CO)cc2)n1` (stereo not drawn) [Example 88, 2-(3-(5-amino-6-(4-(hydroxymethyl)phenyl)pyrazin-2-yl)-4-methylphenyl)-3,3,3-trifluoro-2-hydroxypropanamide trifluoroacetate], the IC50 in assay [1] (Table A3) is less than 100 nM; in assay [2] (Homo sapiens, Table A3) it was 100 to 500 nM; in assay [3] (setting [6]) it was less than 100 nM.

`Cc1ccc(C(O)(C(N)=O)C(F)(F)F)cc1-c1cnc(N)c(-c2cnn(C(C)(C)C#N)c2)n1` (stereo not drawn) [Example 76, 2-(3-(5-amino-6-(1-(2-cyanopropan-2-yl)-1H-pyrazol-4-yl)pyrazin-2-yl)-4-methylphenyl)-3,3,3-trifluoro-2-hydroxypropanamide trifluoroacetate]: the half-maximal inhibitory concentration (IC50) in assay [1] (Table A3) was less than 100 nM; in assay [2] (Homo sapiens, Table A3) it was less than 100 nM; in assay [3] (setting [6]), less than 100 nM.

Take `Cc1ccc(C(O)(C(N)=O)C(F)(F)F)cc1-c1cnc(N)c(N2CCN(C3CC3)C(=O)C2)n1` (stereo not drawn) [Example 112, 2-(3-(5-amino-6-(4-cyclopropyl-3-oxopiperazin-1-yl)pyrazin-2-yl)-4-methylphenyl)-3,3,3-trifluoro-2-hydroxypropanamide Trifluoroacetate]: the IC50 is 100 to 500 nM in assay [1] (Table A4); 100 to 500 nM in assay [2] (Homo sapiens, Table A4); less than 100 nM in assay [3] (setting [4]).

In the case of `CNC(=O)c1ccc(-c2nc(-c3cc(C(O)(C(N)=O)C(F)(F)F)ccc3C)cnc2N)cn1` (stereo not drawn) [Example 80, 5-(3-amino-6-(5-(3-amino-1,1,1-trifluoro-2-hydroxy-3-oxopropan-2-yl)-2-methylphenyl)pyrazin-2-yl)-N-methylpicolinamide bistrifluoroacetate], the half-maximal inhibitory concentration (IC50) in assay [1] (Table A3) was 100 to 500 nM; in assay [2] (Homo sapiens, Table A3), 500 to 1000 nM; in assay [3] (setting [6]), less than 100 nM.
